Test results taken from patent US20250312327A1, “COMPOSITION FOR COMBINATION THERAPY, COMPRISING 2,3,5-SUBSTITUTED THIOPHENE COMPOUND” (PHAROS IBIO CO., LTD, priority 2021, published 2025).
pIC50: −log10 of the molar value. Read-outs that look alike come from different tables or passages of the source. Values belong to the compound of their own block, whether it stands above or below them.

What was measured:
Experiment in all cases: CellTiter-Glo assay, drug administered alone
Format in all cases: cell-based
BDCM leukemia cell line [1] = conditions: 72 h
Method: (§1) The first and second tests were performed in triplicate on the above cell lines while reducing the concentration of venetoclax by half each time from 100 μM, and the third test was performed in triplicate on the BDCM cell line while reducing the concentration of venetoclax by half each time from 100 μM, and performed in triplicate on HL-60, MolM13, MolM14, and MV4-11 cell lines while reducing the concentration of venetoclax by half each time from 2.5 μM. The fourth test was performed in triplicate on HL-60, MolM13, MolM14, and MV4-11 cell lines while reducing the concentration by half each time from 2.5 μM.
(§2) Specifically, in the first and second tests, a 10-fold diluted solution was prepared by dissolving 50 μL of 10 mM venetoclax in 450 μL of solvent. 250 μL of the solution was serially diluted ½, an 8E-tube was filled with 250 μL of each dilution, and 80 μL of each cell line was dispensed into each well of a 96-well plate. Thereafter, 10 μL of each cell line was dispensed using JANUS and incubated for 72 hours under CO2. Celltiter-Glo assay was performed and then IC50 was calculated.
(§3) In the third test, for the BCDM cell line, a 10-fold diluted solution was prepared by dissolving 15 μL of 10 mM venetoclax in 135 μL of solvent. 100 μL of the solution was serially diluted ½, an 8E-tube was filled with 100 μL of each dilution, and the cell line was dispensed into a 96-well plate. Thereafter, 25 μL of the cell line was dispensed using JANUS and incubated for 72 hours under CO2. Celltiter-Glo assay was performed and then IC50 was calculated. Meanwhile, for the HL-60, MolM13, MolM14, and MV4-11 cell lines, a 10-fold diluted solution was prepared by dissolving […] of solvent. 200 μL of the solution was serially diluted ½, an 8E-tube was filled with 200 μL of each dilution, and each of the cell lines was dispensed into a 96-well plate. Thereafter, 60 μL of each cell line was dispensed using JANUS and incubated for 72 hours under CO2. Celltiter-Glo assay was performed and then IC50 was calculated.
(§4) The first and second tests were performed in triplicate on the above cell lines while reducing the concentration of 5-azacytidine by half each time from 100 μM. Specifically, in the first and second tests, a 10-fold diluted solution was prepared by dissolving 15 μL of 20 mM 5-azacytidine in 285 μL of solvent. 250 μL of the solution was serially diluted ½, an 8E-tube was filled with 250 μL of each dilution, and 80 μL of each cell line (3,000 cells) was dispensed into each well of a 96-well plate. Thereafter, 10 μL of each cell line was dispensed using JANUS and incubated for 72 hours under CO2. Celltiter-Glo assay was performed and then IC50 was calculated.
as §4, with “cytarabine” for “5-azacytidine”, “50,000” for “100”, “10” for “15”, “50” for “20”, “490” for “285”

HL-60 leukemia cell line [2] = conditions: Homo sapiens
Method: as §1, §2, §3
(§5) The fourth test was performed on HL-60, MolM13, MolM14, and MV4-11 cell lines in the same manner as the third test.
as §4
as §4, with “cytarabine” for “5-azacytidine”, “50,000” for “100”, “10” for “15”, “50” for “20”, “490” for “285”

[3] = test system: MV4-11 leukemia cell line; conditions: Homo sapiens
Method: as §1, §2, §3, §5, §4
as §4, with “cytarabine” for “5-azacytidine”, “50,000” for “100”, “10” for “15”, “50” for “20”, “490” for “285”

[4] = test system: MolM13 leukemia cell line; conditions: Homo sapiens
Method: as §1, §2, §3, §5, §4
as §4, with “cytarabine” for “5-azacytidine”, “50,000” for “100”, “10” for “15”, “50” for “20”, “490” for “285”

[5] = test system: MolM14 leukemia cell line; conditions: Homo sapiens
Method: as §1, §2, §3, §5, §4
as §4, with “cytarabine” for “5-azacytidine”, “50,000” for “100”, “10” for “15”, “50” for “20”, “490” for “285”

THP-1 leukemia cell line [6] = conditions: Homo sapiens, THP-1, 72 h
Method: as §1, §2, §4
as §4, with “cytarabine” for “5-azacytidine”, “50,000” for “100”, “10” for “15”, “50” for “20”, “490” for “285”

U937 leukemia cell line [7] = conditions: Homo sapiens, U-937, 72 h
Method: as §1, §2, §4
as §4, with “cytarabine” for “5-azacytidine”, “50,000” for “100”, “10” for “15”, “50” for “20”, “490” for “285”

BDCM leukemia cell line [8] = test system: BDCM leukemia cell line
HL-60 leukemia cell line [9] = conditions: Homo sapiens; remark: listed apart in the source
THP-1 leukemia cell line [10] = conditions: Homo sapiens
U937 leukemia cell line [11] = conditions: Homo sapiens
[12] = venetoclax alone, read-out: IC50 First test
[13] = venetoclax alone, read-out: IC50 Second test
[14] = venetoclax administered alone, Table 7, read-out: IC50 Venetoclax
[15] = cytarabine alone, read-out: IC50 First test
[16] = cytarabine alone, read-out: IC50 Second test
[17] = cytarabine administered alone, Table 13, read-out: IC50 Cytarabine
[18] = 5-azacytidine alone, read-out: IC50 First test
[19] = 5-azacytidine alone, read-out: IC50 Second test
[20] = azacitidine administered alone, Table 10, read-out: IC50 Azacitidine

- pIC50 (BDCM leukemia cell line [1]; [12]): 4.91
- pIC50 (BDCM leukemia cell line [1]; [13]): 5.01
- pIC50 (BDCM leukemia cell line [1]; venetoclax alone, read-out: IC50 Third test): 4.89
- pIC50 (HL-60 leukemia cell line [2]; HL-60, 72 h, venetoclax alone, 72 hours, read-out: IC50 First test): 6.45
- pIC50 (HL-60 leukemia cell line [2]; HL-60, 72 h, venetoclax alone, 72 hours, read-out: IC50 Fourth test): 6.56
- pIC50 (HL-60 leukemia cell line [2]; HL-60, 72 h, venetoclax alone, 72 hours, read-out: IC50 Second test): 6.68
- pIC50 (HL-60 leukemia cell line [2]; HL-60, 72 h, venetoclax alone, 72 hours, read-out: IC50 Third test): 6.55
- pIC50 (HL-60 leukemia cell line [2]; HL-60, venetoclax alone, read-out: IC50): ≥ 6.00
- pIC50 [3, 14]: 7.86
- pIC50 ([3]; venetoclax alone, 72 hours, read-out: IC50 First test): 8.17
- pIC50 ([3]; venetoclax alone, 72 hours, read-out: IC50 Fourth test): 7.85
- pIC50 ([3]; venetoclax alone, 72 hours, read-out: IC50 Second test): 8.06
- pIC50 ([3]; venetoclax alone, 72 hours, read-out: IC50 Third test): 7.66
- pIC50 ([3]; venetoclax alone, read-out: IC50): ≥ 6.00
- pIC50 ([4]; MOLM-13, venetoclax alone, MolM13, 72 hours, read-out: IC50 First test): 8.74
- pIC50 ([4]; MOLM-13, venetoclax alone, MolM13, 72 hours, read-out: IC50 Fourth test): 7.99
- pIC50 ([4]; MOLM-13, venetoclax alone, MolM13, 72 hours, read-out: IC50 Second test): 7.90
- pIC50 ([4]; MOLM-13, venetoclax alone, MolM13, 72 hours, read-out: IC50 Third test): 8.07
- pIC50 ([4]; MOLM-13, venetoclax alone, MolM13, read-out: IC50): ≥ 6.00
- pIC50 ([4]; venetoclax administered alone, MolM 13, Table 7, read-out: IC50 Venetoclax): 7.84
- pIC50 ([5]; MOLM-14, 72 h, venetoclax alone, MolM14, 72 hours, read-out: IC50 First test): 6.76
- pIC50 ([5]; MOLM-14, 72 h, venetoclax alone, MolM14, 72 hours, read-out: IC50 Fourth test): 6.66
- pIC50 ([5]; MOLM-14, 72 h, venetoclax alone, MolM14, 72 hours, read-out: IC50 Second test): 6.38
- pIC50 ([5]; MOLM-14, 72 h, venetoclax alone, MolM14, 72 hours, read-out: IC50 Third test): 6.83
- pIC50 ([5]; MOLM-14, venetoclax administered alone, MolM 14, Table 7, read-out: IC50 Venetoclax): 6.55
- pIC50 ([5]; MOLM-14, venetoclax alone, MolM14, read-out: IC50): ≥ 6.00
- pIC50 (THP-1 leukemia cell line [6]; [12]): 4.90
- pIC50 (THP-1 leukemia cell line [6]; [13]): 4.90
- pIC50 (U937 leukemia cell line [7]; [12]): 5.14
- pIC50 (U937 leukemia cell line [7]; [13]): 5.08
- pIC50 (BDCM leukemia cell line [8]; [14]): 4.96
- pIC50 (HL-60 leukemia cell line [9]; HL-60, venetoclax administered alone, Table 7, read-out: IC50 Venetoclax): 6.56
- pIC50 (THP-1 leukemia cell line [10]; THP-1, venetoclax administered alone, Table 7, read-out: IC50 Venetoclax): 4.90
- pIC50 (U937 leukemia cell line [11]; U-937, venetoclax administered alone, Table 7, read-out: IC50 Venetoclax): 5.11
Structure (SMILES): CC1(C)CCC(CN2CCN(c3ccc(C(=O)NS(=O)(=O)c4ccc(NCC5CCOCC5)c([N+](=O)[O-])c4)c(Oc4cnc5[nH]ccc5c4)c3)CC2)=C(c2ccc(Cl)cc2)C1 [Venetoclax]

- pIC50 (BDCM leukemia cell line [1]; [15]): 5.55
- pIC50 (BDCM leukemia cell line [1]; [16]): 5.35
- pIC50 (HL-60 leukemia cell line [2]; HL-60, 72 h, cytarabine alone, 72 hours, read-out: IC50 First test): 6.66
- pIC50 (HL-60 leukemia cell line [2]; HL-60, 72 h, cytarabine alone, 72 hours, read-out: IC50 Second test): 6.79
- pIC50 [3, 17]: 7.09
- pIC50 ([3]; cytarabine alone, 72 hours, read-out: IC50 First test): 7.00
- pIC50 ([3]; cytarabine alone, 72 hours, read-out: IC50 Second test): 6.97
- pIC50 ([4]; MOLM-13, cytarabine alone, MolM13, 72 hours, read-out: IC50 First test): 7.41
- pIC50 ([4]; MOLM-13, cytarabine alone, MolM13, 72 hours, read-out: IC50 Second test): 7.38
- pIC50 ([4]; cytarabine administered alone, MolM 13, Table 13, read-out: IC50 Cytarabine): 7.53
- pIC50 ([5]; MOLM-14, 72 h, cytarabine alone, MolM14, 72 hours, read-out: IC50 First test): 7.00
- pIC50 ([5]; MOLM-14, 72 h, cytarabine alone, MolM14, 72 hours, read-out: IC50 Second test): 7.03
- pIC50 ([5]; MOLM-14, cytarabine administered alone, MolM 14, Table 13, read-out: IC50 Cytarabine): 7.07
- pIC50 (THP-1 leukemia cell line [6]; [15]): 7.95
- pIC50 (THP-1 leukemia cell line [6]; [16]): 7.82
- pIC50 (U937 leukemia cell line [7]; [15]): 7.74
- pIC50 (U937 leukemia cell line [7]; [16]): 7.74
- pIC50 (BDCM leukemia cell line [8]; [17]): 5.63
- pIC50 (HL-60 leukemia cell line [9]; HL-60, cytarabine administered alone, Table 13, read-out: IC50 Cytarabine): 6.77
- pIC50 (THP-1 leukemia cell line [10]; THP-1, cytarabine administered alone, Table 13, read-out: IC50 Cytarabine): 7.97
- pIC50 (U937 leukemia cell line [11]; U-937, cytarabine administered alone, Table 13, read-out: IC50 Cytarabine): 8.03
Structure (SMILES): Nc1ccn([C@@H]2O[C@H](CO)[C@@H](O)[C@@H]2O)c(=O)n1 [Cytarabine]

- pIC50 (BDCM leukemia cell line [1]; [18]): 4.83
- pIC50 (BDCM leukemia cell line [1]; [19]): 4.63
- pIC50 (HL-60 leukemia cell line [2]; HL-60, 72 h, 5-azacytidine alone, 72 hours, read-out: IC50 First test): 4.83
- pIC50 (HL-60 leukemia cell line [2]; HL-60, 72 h, 5-azacytidine alone, 72 hours, read-out: IC50 Second test): 4.88
- pIC50 ([3]; 5-azacytidine alone, 72 hours, read-out: IC50 First test): 5.52
- pIC50 ([3]; 5-azacytidine alone, 72 hours, read-out: IC50 Second test): 5.61
- pIC50 [3, 20]: 5.69
- pIC50 ([4]; MOLM-13, 5-azacytidine alone, MolM13, 72 hours, read-out: IC50 First test): 5.77
- pIC50 ([4]; MOLM-13, 5-azacytidine alone, MolM13, 72 hours, read-out: IC50 Second test): 5.85
- pIC50 ([4]; azacitidine administered alone, MolM 13, Table 10, read-out: IC50 Azacitidine): 5.86
- pIC50 ([5]; MOLM-14, 72 h, 5-azacytidine alone, MolM14, 72 hours, read-out: IC50 First test): 5.41
- pIC50 ([5]; MOLM-14, 72 h, 5-azacytidine alone, MolM14, 72 hours, read-out: IC50 Second test): 5.55
- pIC50 ([5]; MOLM-14, azacitidine administered alone, MolM 14, Table 10, read-out: IC50 Azacitidine): 5.80
- pIC50 (THP-1 leukemia cell line [6]; [18]): 5.22
- pIC50 (THP-1 leukemia cell line [6]; [19]): 5.20
- pIC50 (U937 leukemia cell line [7]; [18]): 5.72
- pIC50 (U937 leukemia cell line [7]; [19]): 5.59
- pIC50 (BDCM leukemia cell line [8]; [20]): 4.01
- pIC50 (HL-60 leukemia cell line [9]; HL-60, azacitidine administered alone, Table 10, read-out: IC50 Azacitidine): 5.02
- pIC50 (THP-1 leukemia cell line [10]; THP-1, azacitidine administered alone, Table 10, read-out: IC50 Azacitidine): 5.47
- pIC50 (U937 leukemia cell line [11]; U-937, azacitidine administered alone, Table 10, read-out: IC50 Azacitidine): 5.51
Structure (SMILES): Nc1ncn([C@@H]2O[C@H](CO)[C@@H](O)[C@H]2O)c(=O)n1 [5-azacytidine]
